Test results from patent US4737504A, “5-fluoro-and 8-fluoro-trimetoquinol compounds and the processes for their preparation” (priority 1986, dated 1988).
Read-outs that look alike come from different tables or passages of the source.

Experiments:
[1] = molecular target: T1, β2-adrenoceptors (guinea pig trachea) (Cavia porcellus, UniProt Q8K4Z4); assay: relaxation of carbachol-contracted guinea pig tracheal strips (β2-adrenergic activity); assay type: cell-based, guinea pig (male albino Hartley)
T1 construct: the atria and trachea were quickly removed by standard procedures; tissue Glenn Carr, Columbus, OH (animals); host or cells: guinea pig trachea, spirally cut strips
Protocol: (§1) The β2 /β1 -adrenergic activity was determined using the following procedure: Male albino Hartley guinea pigs were employed in all experiments. The isolation and procedures for testing of each compound (10^-9 to 3×10^-5 M) with isolated guinea pig atria and trachea were identical with those described by Sober et al., J. Med. Chem., 24: 970, 1981.
Male guinea pigs (Hartley strain, Glenn Carr, Columbus, OH) weighing between 400 and 700 grams were reserpinized (5 mg/kg, i.p.) 12-16 hours before experiments. Animals were sacrificed by a sharp blow to the head and the atria and trachea were quickly removed by standard procedures (The Staff, University of Edinburgh, "Pharmacological Experiments on Isolated Preparation", Livingston, London, pp. 104-111, 1970). Trachea were spirally cut into 2 to 4 matched strips (Constantine, J. Pharm. Pharmac., 17: 34-35, 1965). Spontaneously beating atria and tracheal strips were mounted in 10 ml tissue baths filled with Krebs-Heinsleit solution (millimolar concentrations: NaCl, 118; KCl, 4.7; CaCl2 -2H2 O, 2.5; MgCl2 -6H2 O, 5.0; NaH2 PO4 H2 O, 1.0; NaHCO3, […]; and dextrose, 11) warmed to 37° C. and bubbled with 95% O2 :5% CO2. Tensions of 1 and 3 gm were applied to the atria and trachea, respectively.
Following a minimum 1 hour equilibration period, a concentration of 3×10^-7 M carbachol was administered to the strips.
(§2) Each drug concentration was added only after the effects of the previous concentration reached a maximum and remained constant. […] Responses for agonists were expressed as pD2 values (-log EC50) values and were calculated directly from graphical plots of % maximal response versus log molar drug concentration.

[2] = molecular target: T2, β1-adrenoceptors (guinea pig atria) (Cavia porcellus, UniProt H0W3H1); assay: chronotropic response of spontaneously beating guinea pig right atria (β1-adrenergic activity); assay type: cell-based, guinea pig (male albino Hartley); conditions: read-out: IAR ± SEM (intrinsic activity ratio)
T2 construct: the atria and trachea were quickly removed by standard procedures; tissue Glenn Carr, Columbus, OH (animals); host or cells: guinea pig right atria, spontaneously beating
Protocol: as §1
Male guinea pigs (Hartley strain, Glenn Carr, Columbus, OH) weighing between 400 and 700 grams were reserpinized (5 mg/kg, i.p.) 12-16 hours before experiments. Animals were sacrificed by a sharp blow to the head and the atria and trachea were quickly removed by standard procedures (The Staff, University of Edinburgh, "Pharmacological Experiments on Isolated Preparation", Livingston, London, pp. 104-111, 1970). Trachea were spirally cut into 2 to 4 matched strips (Constantine, J. Pharm. Pharmac., 17: 34-35, 1965). […]
as §2

[3] = test system: human platelets (U46619-induced aggregation); assay: inhibition of U46619-induced platelet aggregation in presence of aspirin, human platelet-rich plasma; assay type: cell-based
Protocol: (§3) The antiaggregatory and antisecretory activity on human platelets was determined by evaluating the in vitro aggregation and [^14 C]serotonin secretion in human platelet preparations. Blood was taken by venipuncture from normal human volunteers who were reported to be free of medication for at least 10 days before blood drawing. Venous blood samples were mixed with acid-citrate dextrose solution (9:1) and centrifuged at 120×g for 15 minutes at room temperature to obtain platelet-rich plasma, PRP, (Huzoor-Akbar et al., Biochem. Pharmacol., 30: 2013-2020, 1981). The PRP was transferred to polypropylene tubes and stored under an atmosphere of 8% CO2. The remaining blood was centrifuged at 1000×g for 10 minutes to obtain platelet-poor plasma. […] Platelet counts varied between 280,000 to 320,000 per cmm or were adjusted to 300,000 per cmm for the aggregation and secretion experiments. All studies were conducted within 2 hours after PRP recovery.
(§4) For aggregation studies, 0.5 ml of PRP was incubated with drug or vehicle (1-5 μl) for 1 minute at 37° C. before the initiation of aggregation with inducers. […] In all experiments, the minimum concentration of inducer (adenosine diphosphate ADP; epinephrine, E; 15S-hydroxy-11α,9α-epoxymethanoprosta-5Z,13E-dienoic acid, U46619; collagen; and arachidonic acid, AA) which caused maximal irreversible aggregation within each PRP preparation was used. Aggregation was monitored for 4 to 6 minutes after the addition of an inducer and data were presented as a percentage inhibition of either slope or maximal light transmittance changes in the presence of varying drug concentrations.

[4] = test system: human platelets (U46619-induced serotonin secretion); assay: inhibition of U46619-induced serotonin secretion in presence of aspirin, human platelet-rich plasma; assay type: cell-based
Protocol: as §3, §4
(§5) Secretion data were calculated as the net increase of serotonin released into the supernatant by each inducer and expressed as a percentage of the total radioactivity in platelets Mayo et al., Biochem. Pharmacol., 30: 2237-2241, 1981. The effect of compounds on serotonin release was expressed as the percentage of inhibition of the maximum release by each inducer and plotted against the log molar concentrations of each agent.

[5] = test system: human platelets (arachidonic acid-induced aggregation); assay: inhibition of arachidonic acid-induced platelet aggregation, human platelet-rich plasma; assay type: cell-based
Protocol: as §3, §4

[6] = test system: human platelets (arachidonic acid-induced serotonin secretion); assay: inhibition of arachidonic acid-induced serotonin secretion, human platelet-rich plasma; assay type: cell-based
Protocol: as §3, §4, §5

[7] = test system: human platelets (collagen-induced aggregation); assay: inhibition of collagen-induced platelet aggregation, human platelet-rich plasma; assay type: cell-based
Protocol: as §3, §4

[8] = test system: human platelets (collagen-induced serotonin secretion); assay: inhibition of collagen-induced serotonin secretion, human platelet-rich plasma; assay type: cell-based
Protocol: as §3, §4, §5

[9] = test system: human platelets (ADP-induced aggregation); assay: inhibition of the secondary phase of ADP-induced platelet aggregation, human platelet-rich plasma; assay type: cell-based
Protocol: as §3, §4

[10] = test system: human platelets (ADP-induced serotonin secretion); assay: inhibition of ADP-induced serotonin secretion, human platelet-rich plasma; assay type: cell-based
Protocol: as §3, §4, §5

[11] = test system: human platelets (epinephrine-induced aggregation); assay: inhibition of the secondary phase of epinephrine-induced platelet aggregation, human platelet-rich plasma; assay type: cell-based
Protocol: as §3, §4

[12] = test system: human platelets (epinephrine-induced serotonin secretion); assay: inhibition of epinephrine-induced serotonin secretion, human platelet-rich plasma; assay type: cell-based
Protocol: as §3, §4, §5

human platelets [13] = assay: human platelet aggregation and serotonin release, inducers taken together; assay type: cell-based; conditions: each inducer
Protocol: as §3, §4, §5

[14] = phenol acidities (pKa) determined spectrophotometrically; assay type: physicochemical; conditions: phenol; tris(hydroxymethyl)aminomethane buffer; UV
Protocol: Phenol acidities (pKa) were determined spectrophotometrically, as described by Albert et al., "The determination of Ionization Constants" 3rd Ed., Chapman and Hall, London and New York, 1984, by measuring the absorption as a function of pH in tris(hydroxymethyl)aminomethane buffer. Since the catechols tended to oxidize in basic media the buffers were degassed and flushed with argon prior to use.

human platelets [15] = conditions: in vitro, background; cited from earlier work
[16] = background; cited from earlier work
[17] = cited from earlier work
adrenergic receptors = conditions: background; cited from earlier work
[18] = molecular target: T3, U46619-induced contractions of rat thoracic aorta (Rattus norvegicus, UniProt P34978); assay: antagonism of U46619-induced contractions of rat thoracic aorta; assay type: cell-based, rat (male Sprague-Dawley); conditions: no analog (None); n = 16; read-out: pD2 of U46619 (control) (converted)
T3 construct: A 2-3 cm segment of thoracic aorta was excised; tissue Harlan Industries, Inc., Cumberland, IN (animals); host or cells: rat thoracic aorta, spirally cut strips
T3 sequence (P34978 1-341): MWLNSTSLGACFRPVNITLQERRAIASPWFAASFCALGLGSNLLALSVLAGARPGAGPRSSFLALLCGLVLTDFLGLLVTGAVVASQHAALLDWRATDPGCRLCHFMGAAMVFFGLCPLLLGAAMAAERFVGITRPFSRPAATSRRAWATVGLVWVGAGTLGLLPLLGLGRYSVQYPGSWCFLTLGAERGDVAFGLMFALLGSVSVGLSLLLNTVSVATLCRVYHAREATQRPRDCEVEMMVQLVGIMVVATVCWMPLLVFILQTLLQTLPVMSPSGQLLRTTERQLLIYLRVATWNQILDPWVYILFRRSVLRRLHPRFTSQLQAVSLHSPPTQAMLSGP
Protocol: The vasoconstrictive activity of U46619 (a stable thromboxane A2 agonist) on thoracic aorta tissue was determined as follows: Male Sprague-Dawley rats (Harlan Industries, Inc., Cumberland, IN) weighing between 250 and 350 gm were stunned and killed by cervical dislocation. A 2-3 cm segment of thoracic aorta was excised, cleaned of any adhering fat and connecting tissue, spirally cut into 2 matched strips, Constantine, supra. (2.0×0.3 cm). Strips were mounted in 10 ml tissue baths filled with the physiological salt solution in which 3×10^-6 M indomethaecin was present. A tension of 1 gm was applied to the strips. Responses of the tissues to drugs were monitored via Grass FT-03 isometric force transducers connected to a Grass Model 7C polygraph (Grass Instruments Co., Quincy, MA).
Some experiments were done in the absence of indomethacin. Concentration-dependent responses to U46619 were constructed in each preparation as described by Van Rossum, supra.
Effective concentration-50 (EC50) values of the agonists were determined graphically from individual plots of percent response versus log concentration. The potency of each agonist was expressed as a pD2 value where pD2 is equal to the negative logarithm of the experimentally determined EC50 value.
Antagonists were quantitated by calculating their pKB or pA2 values according to the methods of Furchgott, Ann. N.Y. Acad. Sci., 139: 553-570 (1967) and Arunlakshana et al., Br. J. Pharmacol., 14: 48-58 (1959). The pKB value is equivalent to the -log of [I]/(CR-1), where pKB is the negative logarithm of the apparent dissociation constant of the antagonist (KB), [I] is the concentration of the antagonist, and CR is the concentration ratio of the agonist EC50 in the presence of antagonist to the agonist EC50 in the absence of antagonist. To determine significant differences between pD2, pKB or pA2 values, a 5% level of significance was used. Arunlakshana plots were analyzed by computer according to the method of Tallarida et al., Manual of Pharmacological Calculations With Computer Programs, 29-31, (1981).

[19] = read-out: IC50 platelet aggregation
[20] = read-out: pIC50 platelet aggregation (converted)
[21] = read-out: IC50 serotonin secretion
[22] = read-out: pIC50 serotonin secretion (converted)
[23] = read-out: IC50 platelet aggregation (secondary phase)
[24] = read-out: pIC50 platelet aggregation (secondary phase) (converted)

T1 sequence (Q8K4Z4 whole entry): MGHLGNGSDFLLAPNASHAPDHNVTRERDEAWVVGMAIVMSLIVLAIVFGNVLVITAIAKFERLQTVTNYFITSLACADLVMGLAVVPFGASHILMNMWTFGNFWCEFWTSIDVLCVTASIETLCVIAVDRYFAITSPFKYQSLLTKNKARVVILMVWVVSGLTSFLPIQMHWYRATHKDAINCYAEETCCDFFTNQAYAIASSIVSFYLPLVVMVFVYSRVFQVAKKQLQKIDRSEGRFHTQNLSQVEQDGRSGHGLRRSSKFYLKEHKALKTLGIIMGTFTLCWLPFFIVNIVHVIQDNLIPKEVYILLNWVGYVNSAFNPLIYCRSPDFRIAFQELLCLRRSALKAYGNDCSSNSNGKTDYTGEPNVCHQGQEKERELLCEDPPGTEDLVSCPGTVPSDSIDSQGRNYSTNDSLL
T2 sequence (H0W3H1 1-470): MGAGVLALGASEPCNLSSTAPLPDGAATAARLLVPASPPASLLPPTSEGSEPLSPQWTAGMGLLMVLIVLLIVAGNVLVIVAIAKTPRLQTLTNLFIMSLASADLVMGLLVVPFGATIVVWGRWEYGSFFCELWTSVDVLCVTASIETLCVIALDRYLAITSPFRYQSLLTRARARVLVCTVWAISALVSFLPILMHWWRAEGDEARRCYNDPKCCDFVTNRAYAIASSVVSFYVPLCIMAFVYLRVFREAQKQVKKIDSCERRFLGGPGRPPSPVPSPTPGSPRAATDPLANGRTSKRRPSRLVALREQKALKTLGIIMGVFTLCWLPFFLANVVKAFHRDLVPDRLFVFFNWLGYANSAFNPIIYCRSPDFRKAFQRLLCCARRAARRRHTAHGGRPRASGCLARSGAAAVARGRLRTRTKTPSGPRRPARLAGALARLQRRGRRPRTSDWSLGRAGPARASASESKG

COc1cc(CC2NCCc3cc(O)c(O)cc32)cc(OC)c1OC (stereo not shown) [TMQ, trimetoquinol]
EC50 [1]: 57.5 nM | agonist activity on tracheal relaxation [1]: nearly equally active as an agonist on tracheal relaxation | Emax ([1]; guinea pig, read-out: IAR ± SEM (intrinsic activity ratio)): 95 ± 1% | Emax [2]: 100% | IC50 [3, 19]: 440 nM | IC50 [3, 20]: 437 nM | IC50 [4, 21]: 720 nM | IC50 [4, 22]: 692 nM | IC50 [5, 19]: 1040 nM | IC50 [5, 20]: 1050 nM | IC50 [6, 21]: 1330 nM | IC50 [6, 22]: 1260 nM | IC50 [7, 19]: 930 nM | IC50 [7, 20]: 933 nM | IC50 [8, 21]: 620 nM | IC50 [8, 22]: 589 nM | IC50 [9, 23]: 340 nM | IC50 [9, 24]: 269 nM | IC50 [10, 21]: 230 nM | IC50 [10, 22]: 200 nM | IC50 [11, 23]: 1730 nM | IC50 [11, 24]: 1660 nM | IC50 [12, 21]: 1150 nM | IC50 [12, 22]: 1020 nM | inhibition of aggregation and serotonin release (human platelets [13]): inhibitors of aggregation and serotonin release by each inducer | pKa [14]: 8.77 ± 0.15 | effect on arachidonic acid-mediated platelet aggregation (human platelets [15]): blocks endoperoxide/thromboxane arachidonic acid-mediated in vitro aggregation of human platelets | side effects [16]: undesirable effect of also increasing the β1 -adrenergic activity which stimulates the heart

CC(C)NCC(O)c1ccc(O)c(O)c1 (stereo not shown) [isoproterenol]
duration of action ([17]; averaging): 1.5 to 2 h | onset of action ([17]; bronchodilator, inhalation): 2 to 5 min | adrenergic receptor activity/selectivity (adrenergic receptors): possesses little tissue selectivity and stimulates both β1 - and β2 -adrenergic receptors | side effects [16]: undesirable tachycardia, increase in cardiac output and an elevation in blood pressure

NCCc1cc(O)c(O)cc1F [6-fluoro-dopamine]
adrenergic receptor activity/selectivity (adrenergic receptors): do not show selectivity for adrenergic receptors

NCCc1ccc(O)c(O)c1F [2-fluoro-dopamine]
adrenergic receptor activity/selectivity (adrenergic receptors): do not show selectivity for adrenergic receptors

CCCCC[C@H](O)/C=C/[C@@H]1[C@@H](C/C=C\CCCC(=O)O)[C@H]2CO[C@@H]1C2 [Compound U46619, 15S-hydroxy-11α,9α-epoxymethanoprosta-5Z,13E-dienoic acid, reference compound]
EC50 [18]: 6.76 nM

NCC(O)c1cc(O)c(O)cc1F (stereo not shown) [6-fluoro analog of norepinephrine]
adrenergic receptor activity/selectivity (adrenergic receptors): selective β-adrenergic agonist

NCC(O)c1ccc(O)c(O)c1F (stereo not shown)
adrenergic receptor activity/selectivity (adrenergic receptors): selective β-adrenergic agonist

CNC[C@H](O)c1ccc(O)c(O)c1 [R-(-)-epinephrine]
adrenergic receptor activity/selectivity (adrenergic receptors): more active than S-(+)-epinephrine on both α- and β-adrenergic receptors

CNC[C@H](O)c1ccc(O)c(O)c1 [epinephrine]
adrenergic receptor activity/selectivity (adrenergic receptors): stimulates both α- and β-adrenergic receptors to about the same degree | side effects [16]: tachycardia, elevated blood pressure, headache, and tremors
